Results: patent US20130158041A1, “Tyrosine Kinase Inhibitors” (priority 2010, published 2013)

Tested on: HGF-dependent scattering phenotype of HPAF-II cells
Test: HPAF scatter assay
Type: cell-based
Conditions: Homo sapiens, 4 ng/ml HGF, 22 hrs, read-out: inhibitory activity (IC50), scattering phenotype
Procedure: The ability of compounds to inhibit the HGF-dependent scattering phenotype of HPAF-II cells was measured using a modified version of the assay described by Chan et al. 2008 (Chan et al. J. Biomolec. Screening 2008; 13:847-854). Briefly, HPAF-II cells (ATCC #CRL1997) were plated in 50 uL DMEM (#11995)+10% FBS+P/S at a density of 3,000 cells/well in Costar black clear bottom 384-well plates [Product no. 3712] and incubated at 37° C. overnight. The next day, […] of serially diluted compound in DMSO was added to each well in the cell plate to give a nine-point 1:3 dilution series with final concentrations ranging from 20 uM to 3 nM. Cells were preincubated with compound at 37° C. for one hour. To stimulate the scattering phenotype, 10 uL of 24 ng/ml HGF (R&D Systems 294-HGN) was next added to each well, giving a final concentration of 4 ng/ml HGF. Cells were incubated with both compound and HGF at 37° C. for an additional 22 hrs. Control […] wells without compound treatment and control wells without HGF or compound were included on each plate. Next, to visualize the cells, each plate was washed in PBS 1×, fixed in ice cold methanol for 3 min at RT, washed in PBS 3×, stained with Hoechst (1:2500) in PBS/0.1% Triton for 15 min in the dark, and finally washed in PBS 4× before imaging on an INCell Analyzer 1000 (GE Healthcare). Individual cell by cell SOI internuclear distance information was exported and then processed using a Pipeline Pilot (Accelrys) protocol to calculate the percentage of scattered cells. The percent inhibition of the scattering phenotype was calculated relative to cells without compound treatment, plotted against the log of compound concentration and then fit to a four parameter logistic fit to obtain IC50 values.

IC50 [nM] | Compound
15 to 550 | CCOc1cnc2ccc(OCc3nn(-c4cnn(C)c4)ccc3=S)cc2c1 [Example 19, 3-{[(3-Ethoxyquinolin-6-yl)oxy]methyl}-1-(1-methyl-1H-pyrazol-4-yl)pyridazin-4(1H)-thione]
15 to 550 | CCCn1cnc(-c2cccc(Cc3nn(-c4cnn(CC)c4)ccc3=S)c2)n1 [Example 5, 1-(1-ethyl-1H-pyrazol-4-yl)-3-[3-(1-propyl-1H-1,2,4-triazol-3-yl)benzyl]pyridazin-4(1H)-thione]
15 to 550 | Cn1cc(-c2cnc3ccc(OCc4nn(-c5cnn(C)c5)ccc4=S)cc3c2)cn1 [Example 21, 1-(1-methyl-1H-pyrazol-4-yl)-3-({[3-(1-methyl-1H-pyrazol-4-yl)quinolin-6-yl]oxy}methyl)pyridazin-4(1H)-thione]
15 to 550 | COCCOc1cnc(-c2cccc(Cc3nn(-c4cnn(C)c4)ccc3=S)c2)nc1 [Example 3, 3-{3-[5-(2-methoxyethoxy)pyrimidin-2-yl]benzyl}-1-(1-methyl-1H-pyrazol-4-yl)pyridazin-4(1H)-thione]
15 to 550 | COCCOC(=O)Nc1cccc(Cc2nn(-c3cnn(C)c3)ccc2=S)c1 [Example 8, 2-methoxyethyl (3-{[1-(1-methyl-1H-pyrazol-4-yl)-4-thioxo-1,4-dihydropyridazin-3-yl]methyl}phenyl)carbamate]
